Assay results from patent US11098058B2, “Bicyclic ketone compounds and methods of use thereof” (Genentech, Inc., priority 2017, dated 2021).
Read-outs that look alike come from different tables or passages of the source.

Legend:
[1] = target: T1, human RIP1 kinase domain (2-375) (Homo sapiens (Human), UniProt Q13546); conditions: 50 nM enzyme, 50 μM ATP, 2 hours incubation
Procedure: (§1) RIP1 Kinase Inhibition Assays (Biochemical Assay)
(§2) The ability of the receptor interacting protein kinase (RIPK1) to catalyze the hydrolysis of adenosine-5′-triphosphate (ATP) is monitored using the Transcreener ADP (adenosine-5′-diphosphate) assay (BellBrook Labs). Purified human RIP1 kinase domain (2-375) (50 nM) derived from a baculovirus-infected insect cell expression system is incubated with test compounds for 2 hours in 50 mM Hepes buffer (pH 7.5) containing 30 mM MgCl2, 1 mM dithiothreitol, 50 μM ATP, 0.002% Brij-35, and 0.5% dimethyl sulfoxide (DMSO). […] The tracer bound to the antibody is displaced by the ADP generated during the RIP1K reaction, which causes a decrease in fluorescence polarization that is measured by laser excitation at 633 nm with a FP microplate reader M1000. Fractional activity was plotted against test article concentration. Using Genedata Screener software (Genedata; Basel, Switzerland), the data were fit to the tight-binding apparent inhibition constant (Ki^app) Morrison equation [Williams, J. W. and Morrison, J. F. (1979) The kinetics of reversible tight-binding inhibition. […] The following equation was used to calculate fractional activity and Ki^app:
(§3) [formula] where [E]T and [I]T are the total concentrations of active enzyme and test article, respectively.

[2] = target: T1, human RIP1 kinase domain (2-375); assay: biochemical; conditions: 50 nM enzyme, 50 μM ATP, 2 hours incubation
Procedure: as §1, §2, §3

[3] = tight-binding apparent inhibition constant (Ki app, Morrison equation)
[4] = RIP1 kinase inhibition, tight-binding apparent Ki

T1 sequence (Q13546 2-375): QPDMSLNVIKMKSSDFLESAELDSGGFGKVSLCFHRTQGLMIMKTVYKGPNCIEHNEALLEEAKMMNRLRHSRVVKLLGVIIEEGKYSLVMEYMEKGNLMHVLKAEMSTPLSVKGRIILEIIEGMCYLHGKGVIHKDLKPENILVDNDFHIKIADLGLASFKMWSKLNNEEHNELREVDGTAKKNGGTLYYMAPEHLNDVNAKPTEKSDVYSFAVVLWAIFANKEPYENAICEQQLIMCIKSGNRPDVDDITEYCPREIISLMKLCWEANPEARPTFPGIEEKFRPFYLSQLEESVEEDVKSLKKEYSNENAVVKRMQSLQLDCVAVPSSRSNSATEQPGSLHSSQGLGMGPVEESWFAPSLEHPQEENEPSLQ

## CC(C)C(=O)c1nc2n(n1)C(c1ccccc1)CC2F (stereo not drawn) [Example 45, 1-(7-fluoro-5-phenyl-6,7-dihydro-5H-pyrrolo[1,2-b][1,2,4]triazol-2-yl)-2-methyl-propan-1-one]
[1]; [3]
  Ki: 14.3 nM

## CC[C@@H]1C[C@H](F)c2nc(C(=O)C3CC3)nn21 (single isomer, unassigned) [Example 92]
[1]; [4]
  Ki: 870 nM

## O=C(c1nc2n(n1)[C@H](c1ccccc1)C[C@@H]2Cl)C1CC1 (single isomer, unassigned) [Example 116]
[1]; [4]
  Ki: 4 nM

## O=C(c1nc2n(n1)[C@H](c1cc(F)cc(F)c1F)C[C@@H]2F)C1CC1 (single isomer, unassigned) [Example 107]
[1]; [4]
  Ki: 3.9 nM

## O=C(c1nc2n(n1)[C@H](c1ccccc1)C[C@H]2Cl)C1CC1 (single isomer, unassigned) [Example 117]
[1]; [4]
  Ki: 560 nM

## O=C(c1nc2n(n1)[C@H](c1ccccc1)C[C@@H]2O)C1CC1 (single isomer, unassigned) [Example 87]
[1]; [4]
  Ki: 13 nM

## O=C(c1nc2n(n1)[C@H](c1ccccc1)C[C@@H]2F)C1CC2(C1)CC2(F)F (stereo partly drawn) [Example 70, (2,2-difluorospiro[2.3]hexan-5-yl)-[(5S,7S)-7-fluoro-5-phenyl-6,7-dihydro-5H-pyrrolo[1,2-b][1,2,4]triazol-2-yl]methanone]
[1]; [4]
  Ki: 17 nM

## CC1(C(=O)c2nc3n(n2)[C@@H](c2ccccc2)C[C@H]3F)COC1 (single isomer, unassigned) [Example 55]
[1]; [3]
  Ki: > 10000 nM

## O=C(c1nc2n(n1)[C@H](c1ccc(F)cc1)C[C@@H]2F)C1CC1 (single isomer, unassigned) [Example 85]
[1]; [4]
  Ki: 9 nM

## CCC(=O)c1cc2n(n1)CC[C@@H]2c1ccccc1 (single isomer, unassigned) [Example 24]
[1]; [3]
  Ki: > 10000 nM

## CCC[C@@H]1C[C@H](F)c2nc(C(=O)C3CC3)nn21 (single isomer, unassigned) [Example 93]
[1]; [4]
  Ki: 41 nM

## CCC(=O)c1cc2n(n1)C(c1ccccc1)CC2 (stereo not drawn) [Example 19, 1-(6-phenyl-5,6-dihydro-4H-pyrrolo[1,2-b]pyrazol-2-yl)propan-1-one]
[1]; [3]
  Ki: 44.2 nM

## O=C(c1nc2n(n1)[C@H](c1ccccc1)C[C@@H]2F)C1(c2ccccn2)CC1 (single isomer, unassigned) [Example 98]
[1]; [4]
  Ki: 110 nM

## O=C(c1nc2n(n1)[C@H](c1ccccc1)C[C@@H]2F)C1CC12CC2 (single isomer, unassigned) [Example 96]
[1]; [4]
  Ki: 3.6 nM

## CO[C@H]1C[C@@H](c2ccccc2)n2nc(C(=O)C3CC3)nc21 (single isomer, unassigned) [Example 84]
[1]; [4]
  Ki: 150 nM

## O=C(c1nc2n(n1)[C@H](c1ccccc1)C[C@@H]2F)C1CC1C(F)(F)F (stereo partly drawn) [Example 81, [(5S,7S)-7-fluoro-5-phenyl-6,7-dihydro-5H-pyrrolo[1,2-b][1,2,4]triazol-2-yl]-[2-(trifluoromethyl)cyclopropyl]methanone]
[1]; [4]
  Ki: 28 nM

## O=C(c1nc2n(n1)[C@@H](c1ccccc1)C[C@H]2F)C1CC(F)(F)C1 (single isomer, unassigned) [Example 64]
[1]; [4]
  Ki: 780 nM

## O=C(c1nc2n(n1)[C@H](c1ccccc1)C[C@@H]2F)C1CC2(CC2)C1 (single isomer, unassigned) [Example 76]
[1]; [4]
  Ki: 3.5 nM

## O=C(c1nc2n(n1)C(c1ccccc1)CCC2)C1CC1 (stereo not drawn) [Example 145, cyclopropyl-(5-phenyl-5,6,7,8-tetrahydro-[1,2,4]triazolo[1,5-a]pyridin-2-yl)methanone]
[1]; [4]
  Ki: 260 nM

## N#CC1(C(=O)c2nc3n(n2)[C@H](c2ccccc2)C[C@@H]3F)CC1 (single isomer, unassigned) [Example 95]
[1]; [4]
  Ki: 2.7 nM

## C[C@@H]1C[C@H]1C(=O)c1nc2n(n1)[C@H](c1ccccc1)C[C@@H]2F (single isomer, unassigned) [Example 91]
[1]; [4]
  Ki: 3.4 nM

## O=C(c1nc2n(n1)[C@H](c1ccccc1)C[C@@H]2F)C1(C2CC2)CC1 (single isomer, unassigned) [Example 99]
[1]; [4]
  Ki: 2.9 nM

## O=C(c1nc2n(n1)[C@H](c1ccccc1)C[C@@H]2F)C1(CF)CC1 [Example 79, [1-(fluoromethyl)cyclopropyl]-[(5S,7S)-7-fluoro-5-phenyl-6,7-dihydro-5H-pyrrolo[1,2-b][1,2,4]triazol-2-yl]methanone]
[1]; [4]
  Ki: 3.4 nM

## C[C@H]1C[C@@H]1C(=O)c1nc2n(n1)[C@H](c1ccccc1)C[C@@H]2F (single isomer, unassigned) [Example 89]
[1]; [4]
  Ki: 15 nM

## O=C(c1nc2n(n1)C(c1ccccc1)CC2)C1(Cn2cccn2)CC1 (stereo not drawn) [Example 158, (5-phenyl-6,7-dihydro-5H-pyrrolo[1,2-b][1,2,4]triazol-2-yl)-[1-(pyrazol-1-ylmethyl)cyclopropyl]methanone]
[1]; [4]
  Ki: 650 nM

## O=C(c1nc2n(n1)[C@H](c1ncccc1F)C[C@@H]2F)C1CC1 (single isomer, unassigned) [Example 150]
[1]; [4]
  Ki: 10 nM

## CC(C)(C)C(=O)c1nc2n(n1)C(c1ccccc1)CC2F (stereo not drawn) [Example 44, 1-(7-fluoro-5-phenyl-6,7-dihydro-5H-pyrrolo[1,2-b][1,2,4]triazol-2-yl)-2,2-dimethyl-propan-1-one]
[1]; [3]
  Ki: 11.5 nM

## O=C(c1nc2n(n1)[C@H](c1ccccc1)C[C@@H]2F)C1CC2C(C1)C2(F)F (single isomer, unassigned) [Example 82]
[1]; [4]
  Ki: 10 nM

## Cn1cc([C@@H]2C[C@H](F)c3nc(C(=O)C4CC4)nn32)cn1 (single isomer, unassigned) [Example 152]
[1]; [4]
  Ki: 30 nM

## O=C(c1nc2n(n1)[C@H](c1ccccc1F)CC2)C1CC1 (racemic) [Example 63, cyclopropyl-[rac-(5S)-5-(2-fluorophenyl)-6,7-dihydro-5H-pyrrolo[1,2-b][1,2,4]triazol-2-yl]methanone]
[2]; [4]
  Ki: 10 nM

## COCC(C)(C)C(=O)c1nc2n(n1)[C@H](c1ccccc1)C[C@@H]2F (racemic) [Example 133, 3-methoxy-2,2-dimethyl-1-[rac-(5S,7S)-7-fluoro-5-phenyl-6,7-dihydro-5H-pyrrolo[1,2-b][1,2,4]triazol-2-yl]propan-1-one]
[2]; [4]
  Ki: < 5 nM

## O=C(c1nc2n(n1)[C@H](c1ccccc1)C[C@@H]2F)[C@@H]1C[C@H]1C(F)(F)F (racemic) [Example 161, [rac-(5S,7S)-7-fluoro-5-phenyl-6,7-dihydro-5H-pyrrolo[1,2-b][1,2,4]triazol-2-yl]-[rac-(1R,2R)-2-(trifluoromethyl)cyclopropyl]methanone]
[2]; [4]
  Ki: 50 nM

## [2H][C@H]1C[C@@H](c2ccccc2)n2nc(C(=O)C3CC3)nc21 (single isomer, unassigned) [Example 111]
[2]; [4]
  Ki: 8.2 nM

## O=C(c1nc2n(n1)[C@H](c1ccccc1)C[C@@H]2F)[C@@H]1C[C@@H]2CC[C@H]1O2 (racemic) [Example 139, [rac-(5S,7S)-7-fluoro-5-phenyl-6,7-dihydro-5H-pyrrolo[1,2-b][1,2,4]triazol-2-yl]-[rac-(1R,2R,4S)-7-oxabicyclo[2.2.1]heptan-2-yl]methanone]
[2]; [4]
  Ki: 140 nM

## O=C(c1nc2n(n1)[C@H](c1ccccc1)C[C@@H]2F)C1CCOC1 (mixture of isomers) [Example 130, [rac-(5S,7S)-7-fluoro-5-phenyl-6,7-dihydro-5H-pyrrolo[1,2-b][1,2,4]triazol-2-yl]-tetrahydrofuran-3-yl-methanone]
[2]; [4]
  Ki: 8 nM

## O=C(c1nc2n(n1)[C@@H](c1ccccc1)C[C@@H]2F)C1CC1 (racemic) [Example 18, cyclopropyl-[rac-(5R,7S)-7-fluoro-5-phenyl-6,7-dihydro-5H-pyrrolo[1,2-b][1,2,4]triazol-2-yl]methanone]
[2]; [3]
  Ki: 235 nM

## [2H][C@]1(Cl)C[C@@H](c2ccccc2)n2nc(C(=O)C3CC3)nc21 (racemic) [Example 119, cyclopropyl-[rac-(5S,7S)-7-chloro-7-deuterio-5-phenyl-5,6-dihydropyrrolo[1,2-b][1,2,4]triazol-2-yl]methanone]
[2]; [4]
  Ki: 36 nM

## [2H][C@]1(F)C[C@@H](c2ccccc2)n2nc(C(=O)C3CC3)nc21 (single isomer, unassigned) [Example 103]
[2]; [4]
  Ki: 7.9 nM

## [2H]C1([2H])C[C@@H](c2ccccc2)n2nc(C(=O)C3CC3)nc21 (single isomer, unassigned) [Example 114]
[2]; [4]
  Ki: 18 nM

## Cn1cc(C(=O)c2nc3n(n2)[C@H](c2ccccc2)C[C@@H]3F)cn1 (stereo in doubt) [Example 40, (1-methylpyrazol-4-yl)-[rac-(5S,7S)-7-fluoro-5-phenyl-6,7-dihydro-5H-pyrrolo[1,2-b][1,2,4]triazol-2-yl]methanone]
[2]; [3]
  Ki: > 10000 nM

## O=C(c1nc2n(n1)[C@H](c1ccccc1)C[C@@H]2F)C1(C(F)(F)F)CC1 (racemic) [Example 14, (rac-(5S,7S)-7-fluoro-5-phenyl-6,7-dihydro-5H-pyrrolo[1,2-b][1,2,4]triazol-2-yl)-[1-(trifluoromethyl)cyclopropyl]methanone]
[2]; [3]
  Ki: 11.2 nM

## O=C(c1nc2n(n1)[C@H](c1ccccc1)C[C@@H]2F)[C@H]1CC12CC2 (racemic) [Example 162, [rac-(5S,7S)-7-fluoro-5-phenyl-6,7-dihydro-5H-pyrrolo[1,2-b][1,2,4]triazol-2-yl]-[rac-(2S)-spiro[2.2]pentan-2-yl]methanone]
[2]; [4]
  Ki: 16 nM

## O=C(c1nc2n(n1)[C@@H](c1ccccc1)C[C@H]2F)C1CC1 (stereo in doubt) [Example 35, cyclopropyl-[rac-(5R,7R)-7-fluoro-5-phenyl-6,7-dihydro-5H-pyrrolo[1,2-b][1,2,4]triazol-2-yl]methanone]
[2]; [3]
  Ki: > 9400 nM

## O=C(c1nc2n(n1)[C@H](c1ccccc1)C[C@@H]2F)C1CCCC1 (racemic) [Example 36, cyclopentyl--(rac-(5S,7S)-7-fluoro-5-phenyl-6,7-dihydro-5H-pyrrolo[1,2-b][1,2,4]triazol-2-yl)methanone]
[2]; [3]
  Ki: 18.8 nM

## CC(C)(C)C(=O)c1nc2n(n1)[C@H](c1ccccc1)C[C@@H]2F (stereo in doubt) [Example 37, 2,2-dimethyl-1-[rac-(5S,7S)-7-fluoro-5-phenyl-6,7-dihydro-5H-pyrrolo[1,2-b][1,2,4]triazol-2-yl]propan-1-one]
[2]; [3]
  Ki: 2830 nM
